Read-outs that look alike come from different tables or passages of the source.
How the values were obtained:
Experiment in all cases: SelectScreen Kinase Profiling, single point inhibition and IC50 for off-target kinases
Type in all cases: biochemical
off-target kinases [1] = target: off-target kinases (Homo sapiens, UniProt Q9P1W9); details: PIM2, ZLYTE, ATP Km app
off-target kinases [2] = target: off-target kinases (Homo sapiens, UniProt Q13131)
off-target kinases [3] = target: off-target kinases (Homo sapiens, UniProt P08631); details: HCK, ZLYTE, ATP Km app
off-target kinases [4] = target: off-target kinases (Homo sapiens, UniProt P42356); details: PI4KA (PI4K alpha), Adapta, ATP 10
off-target kinases [5] = target: off-target kinases (Homo sapiens, UniProt P11362); details: FGFR1, ZLYTE, ATP Km app
off-target kinases [6] = target: off-target kinases (Homo sapiens, UniProt Q9HCP0); details: CSNK1G1 (CK1 gamma 1); Cmpd1 1000 μM; ATP Km app; ZLYTE
off-target kinases [7] = target: off-target kinases (Homo sapiens, UniProt P07949, Y791F); details: RET Y791F, ATP Km app, ZLYTE
off-target kinases [8] = target: T1, off-target kinases (Homo sapiens, UniProt O00141); details: SGK (SGK1), ZLYTE, ATP Km app
T1 sequence (O00141 1-431): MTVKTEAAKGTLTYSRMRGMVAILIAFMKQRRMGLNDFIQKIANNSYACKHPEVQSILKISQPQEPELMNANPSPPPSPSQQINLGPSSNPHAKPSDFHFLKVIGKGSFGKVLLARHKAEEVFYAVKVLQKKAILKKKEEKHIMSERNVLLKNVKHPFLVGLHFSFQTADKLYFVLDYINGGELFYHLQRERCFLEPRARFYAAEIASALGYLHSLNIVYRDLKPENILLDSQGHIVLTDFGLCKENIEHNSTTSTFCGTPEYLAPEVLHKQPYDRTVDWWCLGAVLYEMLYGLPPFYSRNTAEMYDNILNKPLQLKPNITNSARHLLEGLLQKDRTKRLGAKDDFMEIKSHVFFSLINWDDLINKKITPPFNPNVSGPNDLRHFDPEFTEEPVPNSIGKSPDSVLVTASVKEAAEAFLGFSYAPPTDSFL

off-target kinases [9] = target: off-target kinases (Homo sapiens, UniProt O00506); details: STK25 (YSK1), ZLYTE, ATP Km app
off-target kinases [10] = target: off-target kinases (Homo sapiens, UniProt P36888); details: FLT3, ATP Km app, ZLYTE
Sequence of off-target kinases (Homo sapiens, UniProt P36888) (P36888 27-993): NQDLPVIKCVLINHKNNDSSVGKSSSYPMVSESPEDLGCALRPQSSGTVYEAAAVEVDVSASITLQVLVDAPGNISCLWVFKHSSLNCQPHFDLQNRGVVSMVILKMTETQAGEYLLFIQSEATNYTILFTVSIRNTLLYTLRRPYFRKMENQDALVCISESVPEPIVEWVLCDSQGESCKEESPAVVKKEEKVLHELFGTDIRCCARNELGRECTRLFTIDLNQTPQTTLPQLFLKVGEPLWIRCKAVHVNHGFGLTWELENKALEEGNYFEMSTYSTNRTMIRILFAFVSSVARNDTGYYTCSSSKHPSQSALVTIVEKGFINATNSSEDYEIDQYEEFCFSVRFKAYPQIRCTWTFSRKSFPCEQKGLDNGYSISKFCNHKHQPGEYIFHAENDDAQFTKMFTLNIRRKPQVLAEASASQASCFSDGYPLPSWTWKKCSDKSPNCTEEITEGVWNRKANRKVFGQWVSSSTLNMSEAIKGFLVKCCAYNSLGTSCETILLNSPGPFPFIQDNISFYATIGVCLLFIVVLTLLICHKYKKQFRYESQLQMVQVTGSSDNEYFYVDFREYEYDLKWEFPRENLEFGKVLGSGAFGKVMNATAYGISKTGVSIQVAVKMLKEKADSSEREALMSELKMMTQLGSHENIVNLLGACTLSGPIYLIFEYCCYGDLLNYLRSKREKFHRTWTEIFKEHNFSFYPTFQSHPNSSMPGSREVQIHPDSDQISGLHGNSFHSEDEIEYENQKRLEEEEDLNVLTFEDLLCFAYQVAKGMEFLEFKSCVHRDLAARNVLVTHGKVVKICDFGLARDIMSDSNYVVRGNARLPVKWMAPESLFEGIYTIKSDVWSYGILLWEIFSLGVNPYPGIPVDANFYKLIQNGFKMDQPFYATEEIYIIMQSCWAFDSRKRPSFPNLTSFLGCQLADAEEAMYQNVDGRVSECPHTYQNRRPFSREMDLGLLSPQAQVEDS

Sequence of off-target kinases (Homo sapiens, UniProt P08631) (P08631 whole entry): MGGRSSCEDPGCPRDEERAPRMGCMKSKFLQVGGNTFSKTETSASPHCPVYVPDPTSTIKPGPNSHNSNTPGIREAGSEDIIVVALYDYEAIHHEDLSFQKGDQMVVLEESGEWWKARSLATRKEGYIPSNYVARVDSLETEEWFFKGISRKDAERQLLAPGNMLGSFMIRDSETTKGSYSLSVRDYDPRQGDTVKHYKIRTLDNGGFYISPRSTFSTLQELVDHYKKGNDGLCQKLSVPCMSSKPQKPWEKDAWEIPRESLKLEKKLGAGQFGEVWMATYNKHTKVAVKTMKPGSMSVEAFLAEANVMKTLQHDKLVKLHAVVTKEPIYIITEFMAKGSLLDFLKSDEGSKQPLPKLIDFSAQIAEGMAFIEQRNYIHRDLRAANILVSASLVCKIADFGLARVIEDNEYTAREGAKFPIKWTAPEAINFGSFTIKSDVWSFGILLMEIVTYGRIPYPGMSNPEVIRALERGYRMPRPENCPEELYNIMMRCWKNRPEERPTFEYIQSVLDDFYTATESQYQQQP
Sequence of off-target kinases (Homo sapiens, UniProt O00506) (O00506 whole entry): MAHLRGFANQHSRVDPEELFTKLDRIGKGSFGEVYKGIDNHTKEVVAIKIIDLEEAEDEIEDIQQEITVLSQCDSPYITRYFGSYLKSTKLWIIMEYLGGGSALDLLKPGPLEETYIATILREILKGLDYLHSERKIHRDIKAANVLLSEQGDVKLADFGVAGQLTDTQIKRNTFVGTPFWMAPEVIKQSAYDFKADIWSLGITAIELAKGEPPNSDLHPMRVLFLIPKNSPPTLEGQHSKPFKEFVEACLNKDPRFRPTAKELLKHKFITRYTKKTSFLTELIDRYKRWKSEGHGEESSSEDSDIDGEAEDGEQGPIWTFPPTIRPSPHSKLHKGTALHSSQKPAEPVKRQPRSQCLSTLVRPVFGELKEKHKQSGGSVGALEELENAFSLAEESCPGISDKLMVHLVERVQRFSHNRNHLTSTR
Sequence of off-target kinases (Homo sapiens, UniProt Q9HCP0) (Q9HCP0 whole entry): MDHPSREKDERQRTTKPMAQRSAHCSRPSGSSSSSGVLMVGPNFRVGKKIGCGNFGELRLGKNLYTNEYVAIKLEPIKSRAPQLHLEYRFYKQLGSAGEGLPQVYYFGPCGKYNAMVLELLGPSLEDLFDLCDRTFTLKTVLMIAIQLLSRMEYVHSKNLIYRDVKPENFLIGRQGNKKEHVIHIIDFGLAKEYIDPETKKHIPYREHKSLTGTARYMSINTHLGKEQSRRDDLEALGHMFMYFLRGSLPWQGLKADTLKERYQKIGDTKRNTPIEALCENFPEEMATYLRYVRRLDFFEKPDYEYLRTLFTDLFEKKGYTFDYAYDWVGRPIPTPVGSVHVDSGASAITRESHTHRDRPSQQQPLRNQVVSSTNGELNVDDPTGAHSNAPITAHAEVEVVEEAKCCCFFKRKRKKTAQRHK
Sequence of off-target kinases (Homo sapiens, UniProt Q13131) (Q13131 whole entry): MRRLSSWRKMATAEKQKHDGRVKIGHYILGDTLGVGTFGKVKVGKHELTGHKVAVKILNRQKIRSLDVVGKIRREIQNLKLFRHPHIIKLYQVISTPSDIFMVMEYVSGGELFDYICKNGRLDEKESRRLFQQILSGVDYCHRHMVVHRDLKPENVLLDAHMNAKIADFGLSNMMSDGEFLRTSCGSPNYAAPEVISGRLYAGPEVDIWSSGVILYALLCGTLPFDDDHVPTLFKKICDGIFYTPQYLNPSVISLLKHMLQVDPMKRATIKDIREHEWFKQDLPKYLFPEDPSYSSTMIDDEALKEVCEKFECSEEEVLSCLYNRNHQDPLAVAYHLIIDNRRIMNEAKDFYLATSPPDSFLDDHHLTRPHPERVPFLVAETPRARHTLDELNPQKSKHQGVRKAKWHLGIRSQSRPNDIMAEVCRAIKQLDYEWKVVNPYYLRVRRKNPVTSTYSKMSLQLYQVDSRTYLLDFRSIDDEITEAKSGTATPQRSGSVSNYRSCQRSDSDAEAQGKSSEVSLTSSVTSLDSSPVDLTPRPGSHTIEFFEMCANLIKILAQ
Sequence of off-target kinases (Homo sapiens, UniProt Q9P1W9) (Q9P1W9 whole entry): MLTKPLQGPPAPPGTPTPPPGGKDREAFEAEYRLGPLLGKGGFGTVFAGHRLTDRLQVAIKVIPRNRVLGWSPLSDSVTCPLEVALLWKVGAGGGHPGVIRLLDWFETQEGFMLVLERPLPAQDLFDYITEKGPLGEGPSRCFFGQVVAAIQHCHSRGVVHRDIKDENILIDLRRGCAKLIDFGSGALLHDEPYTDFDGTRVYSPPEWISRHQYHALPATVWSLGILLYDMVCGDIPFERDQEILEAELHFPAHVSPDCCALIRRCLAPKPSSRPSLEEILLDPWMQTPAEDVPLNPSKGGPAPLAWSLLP
Sequence of off-target kinases (Homo sapiens, UniProt P11362) (P11362 22-822): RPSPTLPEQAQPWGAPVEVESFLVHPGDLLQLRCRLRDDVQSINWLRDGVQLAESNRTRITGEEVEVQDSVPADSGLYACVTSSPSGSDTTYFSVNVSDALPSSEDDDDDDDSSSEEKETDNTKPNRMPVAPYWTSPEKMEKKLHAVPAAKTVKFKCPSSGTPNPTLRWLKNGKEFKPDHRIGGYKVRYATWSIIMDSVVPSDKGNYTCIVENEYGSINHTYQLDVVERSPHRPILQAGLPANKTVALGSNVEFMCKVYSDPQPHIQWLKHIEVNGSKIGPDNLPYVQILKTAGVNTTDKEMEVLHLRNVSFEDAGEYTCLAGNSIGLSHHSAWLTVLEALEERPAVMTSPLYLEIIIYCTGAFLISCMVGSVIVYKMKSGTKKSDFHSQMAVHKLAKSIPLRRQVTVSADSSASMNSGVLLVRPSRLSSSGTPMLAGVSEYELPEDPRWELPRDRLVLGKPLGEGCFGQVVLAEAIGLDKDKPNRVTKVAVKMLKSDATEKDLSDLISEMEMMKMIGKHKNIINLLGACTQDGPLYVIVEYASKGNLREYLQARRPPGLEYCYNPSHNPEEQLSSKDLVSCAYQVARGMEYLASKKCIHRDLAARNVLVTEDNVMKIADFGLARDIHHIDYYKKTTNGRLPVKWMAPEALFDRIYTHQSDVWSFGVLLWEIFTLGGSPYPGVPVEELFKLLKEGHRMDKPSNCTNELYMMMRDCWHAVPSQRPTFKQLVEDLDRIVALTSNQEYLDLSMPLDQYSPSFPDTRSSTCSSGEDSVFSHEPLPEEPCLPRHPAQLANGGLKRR

**Q.** With `N#Cc1cc(-c2ncnc(Nc3ccc(N4CCN(C5COC5)CC4)cc3)n2)ccc1OC1CCOCC1` [Compound 1, 5-(4-((4-(4-(oxetan-3-yl)piperazin-1-yl)phenyl)amino)-1,3,5-triazin-2-yl)-2-((tetrahydro-2H-pyran-4-yl)oxy)benzonitrile] as the compound, how does the inhibition (off-target kinases [1]; read-out: % Inhibition 1) read?
**A.** -1%

**Q.** What about the inhibition (off-target kinases [1]; read-out: % Inhibition 2) of the same compound?
**A.** 7%

**Q.** And the inhibition (off-target kinases [1]; read-out: % Inhibition Avg)?
**A.** 3%

**Q.** What about the inhibition (off-target kinases [2]; AMPK (A1/B1/G2), LanthaScreen Binding, read-out: % Inhibition 1) of the same compound?
**A.** 40%

**Q.** And the inhibition (off-target kinases [2]; AMPK (A1/B1/G2), LanthaScreen Binding, read-out: % Inhibition 2)?
**A.** 40%

**Q.** And the inhibition (off-target kinases [2]; AMPK (A1/B1/G2), LanthaScreen Binding, read-out: % Inhibition Avg)?
**A.** 40%

**Q.** And the inhibition (off-target kinases [2]; AMPK (A1/B1/G3), LanthaScreen Binding, read-out: % Inhibition 1)?
**A.** 37%

**Q.** What about the inhibition (off-target kinases [2]; AMPK (A1/B1/G3), LanthaScreen Binding, read-out: % Inhibition 2) of the same compound?
**A.** 42%

**Q.** And the inhibition (off-target kinases [2]; AMPK (A1/B1/G3), LanthaScreen Binding, read-out: % Inhibition Avg)?
**A.** 39%

**Q.** And the inhibition (off-target kinases [2]; AMPK (A1/B2/G1), LanthaScreen Binding, read-out: % Inhibition 1)?
**A.** 49%

**Q.** What about the inhibition (off-target kinases [2]; AMPK (A1/B2/G1), LanthaScreen Binding, read-out: % Inhibition 2) of the same compound?
**A.** 43%

**Q.** And the inhibition (off-target kinases [2]; AMPK (A1/B2/G1), LanthaScreen Binding, read-out: % Inhibition Avg)?
**A.** 46%

**Q.** What about the inhibition (off-target kinases [2]; AMPK A1/B1/G1, ATP Km app, ZLYTE, read-out: % Inhibition 1) of the same compound?
**A.** 58%

**Q.** And the inhibition (off-target kinases [2]; AMPK A1/B1/G1, ATP Km app, ZLYTE, read-out: % Inhibition 2)?
**A.** 53%

**Q.** What about the inhibition (off-target kinases [2]; AMPK A1/B1/G1, ATP Km app, ZLYTE, read-out: % Inhibition Avg) of the same compound?
**A.** 55%

**Q.** And the inhibition (off-target kinases [3]; read-out: % Inhibition 1)?
**A.** 26%

**Q.** And the inhibition (off-target kinases [3]; read-out: % Inhibition 2)?
**A.** 28%

**Q.** And the inhibition (off-target kinases [3]; read-out: % Inhibition Avg)?
**A.** 27%

**Q.** And the inhibition (off-target kinases [4]; read-out: % Inhibition 1)?
**A.** 3%

**Q.** What about the inhibition (off-target kinases [4]; read-out: % Inhibition 2) of the same compound?
**A.** -3%

**Q.** And the inhibition (off-target kinases [4]; read-out: % Inhibition Avg)?
**A.** 0%

**Q.** And the inhibition (off-target kinases [5]; read-out: % Inhibition 1)?
**A.** -5%

**Q.** What about the inhibition (off-target kinases [5]; read-out: % Inhibition 2) of the same compound?
**A.** -2%

**Q.** What about the inhibition (off-target kinases [5]; read-out: % Inhibition Avg) of the same compound?
**A.** -3%

**Q.** What about the “% Inhibition 1” value (off-target kinases [6]) of the same compound?
**A.** −14%

**Q.** And the “% Inhibition 2” value (off-target kinases [6])?
**A.** 2%

**Q.** And the “% Inhibition Avg” value (off-target kinases [6])?
**A.** −6%

**Q.** What about the inhibition (off-target kinases [7]; read-out: % Inhibition 1) of the same compound?
**A.** 57%

**Q.** And the inhibition (off-target kinases [7]; read-out: % Inhibition 2)?
**A.** 43%

**Q.** What about the inhibition (off-target kinases [7]; read-out: % Inhibition Avg) of the same compound?
**A.** 50%

**Q.** And the inhibition (off-target kinases [8]; read-out: % Inhibition 1)?
**A.** 28%

**Q.** And the inhibition (off-target kinases [8]; read-out: % Inhibition 2)?
**A.** 26%

**Q.** And the inhibition (off-target kinases [8]; read-out: % Inhibition Avg)?
**A.** 27%

**Q.** What about the inhibition (off-target kinases [9]; read-out: % Inhibition 1) of the same compound?
**A.** 0%

**Q.** What about the inhibition (off-target kinases [9]; read-out: % Inhibition 2) of the same compound?
**A.** -4%

**Q.** And the inhibition (off-target kinases [9]; read-out: % Inhibition Avg)?
**A.** -2%

**Q.** What about the inhibition (off-target kinases [10]; read-out: % Inhibition 1) of the same compound?
**A.** 42%

**Q.** And the inhibition (off-target kinases [10]; read-out: % Inhibition 2)?
**A.** 49%

**Q.** And the inhibition (off-target kinases [10]; read-out: % Inhibition Avg)?
**A.** 45%

From US11572590B2, “Methods for evaluating tumor cell spheroids using 3D microfluidic cell culture device” (Dana-Farber Cancer Institute, Inc., priority 2017, dated 2023)
